Reference: patent US20120028988A1, “USE OF PYRIDAZINONE COMPOUND FOR CONTROL OF HARMFUL ARTHROPOD PESTS” (SUMITOMO CHEMICAL COMPANY, LIMITED, priority 2009, published 2012)

Tested on: Plutella xylostella
Assay: whole plant or invertebrate
Type: in vivo
Details: 120 h, 500 ppm active ingredient, 20 mL/cup sprayed on Brassicae oleracea, second-stage larvae, 25° C., after 5 days, read-out: mortality of the insects
Description: (§1) The preparation of the present composition obtained by Preparation Example 14 was diluted with water so as to have a concentration of active ingredient of 500 ppm, to prepare a drug solution for test.
The drug solution for test was sprayed at a rate of 20 mL/cup on Brassicae oleracea at the 3 leaf stage planted in a polyethylene cup. After the drug solution dried, leaves and stems were cut out and placed in a 50 mL cup. 5 second-stage larvae of Plutella xylostella were released there, and the lid was closed. This cup was stored at 25° C., and the number of surviving insects was counted after 5 days, and the mortality of the insects was calculated by the following equation.
(§2) Mortality of Insects (%)=(Number of Dead Insects/Number of Test Insects)×100

| Structure (SMILES) | mortality at 500 ppm [%] |
| --- | --- |
| Cc1ccc(-c2ccc(Cl)cc2)cc1-c1c(O)cnn(C)c1=O [I-a-59, 4-[5-(4-chlorophenyl)-2-methylphenyl]-5-hydroxy-2-methyl-3(2H)-pyridazinone] | ≥ 80 |
| Cc1ccc(-c2ccc(F)cc2)cc1-c1c(O)c(C)nn(C)c1=O [I-a-46, 4-[5-(4-fluorophenyl)-2-methylphenyl]-5-hydroxy-2,6-dimethyl-3(2 H)-pyridazinone] | ≥ 80 |

Tested on: Blattalla germanica
Assay: Test Example 6: treated filter paper with sucrose, Blattalla germanica male adults, mortality index
Type: in vivo
Details: 500 ppm active ingredient, 0.7 mL on filter paper with sucrose; 2 male adults; after 6 days
Description: as §1
A filter paper with a diameter of 5.5 cm was placed in the bottom of a polyethylene cup, then 0.7 mL of the above drug solution for test was added dropwise on the filter paper, and 30 mg of sucrose was uniformly added as a feed. 2 male adults of Blattalla germanica were released in the polyethylene cup, and the lid was closed. The number of dead insects was calculated after 6 days.
The mortality was calculated by the following equation and was evaluated by the indexes of 4: mortality 100%, 2:50%, and 0:0%.
Mortality (%)=(Number of Dead Insects/Number of Test Insects)×100

| Structure (SMILES) | index (mortality) |
| --- | --- |
| CCc1ccccc1-c1c(OC(=O)c2ccccc2)cnn(C)c1=O [I-b-1, 5-benzoyloxy-4-(2-ethylphenyl)-2-methyl-3(2H)-pyridazinone] | 4 (mortality 100%) |

Tested on: Spodoptera litura
Assay: whole plant or invertebrate
Type: in vivo
Details: 144 h, 500 ppm active ingredient, 20 mL/cup sprayed on Brassicae oleracea, fourth-stage larvae, 25° C., after 6 days, read-out: mortality of the insects
Description: as §1
The drug solution for test was sprayed at a rate of 20 mL/cup on Brassicae oleracea at the 5 to 6 leaf stages planted in a polyethylene cup. After the drug solution dried, 10 fourth-stage larvae of Spodoptera litura were released. Brassicae oleracea at the 5 to 6 leaf stage planted in this polyethylene cup was covered with an another polyethylene cup (volume of 400 mL). This was stored at 25° C., and the number of surviving insects was counted after 6 days, then the mortality of the insects was calculated by the following equation.
as §2

| Structure (SMILES) | mortality at 500 ppm [%] |
| --- | --- |
| Cc1ccc(-c2ccc(Cl)cc2)cc1-c1c(O)cnn(C)c1=O [I-a-59, 4-[5-(4-chlorophenyl)-2-methylphenyl]-5-hydroxy-2-methyl-3(2H)-pyridazinone] | ≥ 80 |

Tested on: Frankliniella occidentalis
Assay: Test Example 10: spray on cucumber, Frankliniella occidentalis larvae on cut leaves, preventive value
Type: in vivo
Details: 500 ppm active ingredient, 10 mL/cup sprayed on cucumber; larvae on cut first true leaves; after 7 days
Description: The drug solution for test was sprayed at a rate of 10 mL/cup on cucumber at the second true leaf-expansion stage planted in a polyethylene cup. After the drug solution dried, the first true leaves were cut out and placed in a polyethylene cup, then 20 larvae of Frankliniella occidentalis were released, and the lid was closed. After 7 days, the number of surviving larvae on the leaves of cucumber was investigated, and the preventive value was calculated by the following equation. Preventive Value (%)={1−(Cb×Tai)/(Cai×Tb)}×100 Here, the letters in the equation represent the following meaning. Cb: Number of Insects in Untreated Area Before Treatment Cai: Number of Insects in Untreated Area at Observation Tb: Number of Insects in Treated Area Before Treatment Tai: Number of Insects in Treated Area at Observation

| Structure (SMILES) | preventive value [%] |
| --- | --- |
| Cc1ccc(-c2ccc(Cl)cc2)cc1-c1c(O)c(C)nn(C)c1=O [I-a-40] | ≥ 90 |

Tested on: not given
Assay: not given
Details: not given

| melting point [°C] | Structure (SMILES) |
| --- | --- |
| 217 to 219 | CCc1cc(CC)c(-c2c(O)c(C)nn(C)c2=O)c(CC)c1I [I-a-72, 5-hydroxy-2,6-dimethyl-4-(2,4,6-triethyl-3-iodophenyl)-3(2H)-pyridazinone] |
| 235 to 236 | CCc1cc(C)c(Br)c(CC)c1-c1c(O)c(C)nn(C)c1=O [I-a-47, 4-(3-bromo-2,6-diethyl-4-methylphenyl)-5-hydroxy-2,6-dimethyl-3(2H)-pyridazinone] |
| 248 to 250 | CCc1cc(C)c(-c2ccc(Cl)cc2)c(CC)c1-c1c(O)c(C)nn(C)c1=O [I-a-48, 4-[3-(4-chlorophenyl)-2,6-diethyl-4-methylphenyl)-5-hydroxy-2,6-dimethyl-3(2H)-pyridazinone] |
| 113 to 115 | CCc1cc(C)c(Br)c(CC)c1-c1c(OC(=O)OC)c(C)nn(C)c1=O [I-b-50, 4-(3-bromo-2,6-diethyl-4-methylphenyl)-5-methoxycarbonyloxy-2,6-dimethyl-3(2H)-pyridazinone] |
| 193 to 195 | CCc1cc(C)c(F)c(CC)c1-c1c(O)c(C)nn(C)c1=O [I-a-74, 4-(2,6-diethyl-3-fluoro-4-methylphenyl)-5-hydroxy-2,6-dimethyl-3(2H)-pyridazinone] |

Continued, molecule first:

| Structure (SMILES) | melting point [°C] |
| --- | --- |
| CCc1cc(CC)c(-c2c(O)c(C)nn(C)c2=O)c(CC)c1Br [I-a-50, 4-(3-bromo-2,4,6-triethylphenyl)-5-hydroxy-2,6-dimethyl-3(2H)-pyridazinone] | 225 to 226 |
| CCc1c(Cl)c(CC)c(-c2c(O)c(C)nn(C)c2=O)c(CC)c1Cl [I-a-71, 4-(3,5-dichloro-2,4,6-triethylphenyl)-5-hydroxy-2,6-dimethyl-3(2H)-pyridazinone] | 266 to 267 |
| CCc1cc(CC)c(-c2c(O)c(C)nn(C)c2=O)c(CC)c1Cl [I-a-49, 4-(3-chloro-2,4,6-triethylphenyl)-5-hydroxy-2,6-dimethyl-3(2H)-pyridazinone] | 225 to 226 |
| Cc1ccc(Br)cc1-c1c(O)c(C)nn(C)c1=O [I-a-45, 4-(5-bromo-2-methylphenyl)-5-hydroxy-2,6-dimethyl-3(2H)-pyridazinone] | 217 to 218 |
| C#Cc1cc(C)cc(C)c1-c1c(O)c(C)nn(C)c1=O [I-a-44, 4-(2-ethynyl-4,6-dimethylphenyl)-5-hydroxy-2,6-dimethyl-3(2H)-pyridazinone] | 179 to 181 |
